Laboratory results reported in ChEMBL document CHEMBL6121000, “Corosolic acid and its derivatives targeting MCCC1 against insulin resistance and their hypoglycemic effect on type 2 diabetic mice” (Eur J Med Chem, 2025).
Activity calls are given as the source filed them. The rule behind the calls is not given here.

Assays:
[1] = (§1) Cytotoxicity against human HepG2 cells assessed as cell viability at 80 uM incubated for 24 hrs by CCK8 assay relative to control; format: toxicity, cell-based; details: HepG2 cells, read-out: Activity
HepG2 [2] = assay: Inhibition of insulin resistance in human HepG2 cells assessed as decrease in GlcN-induced glucose production at 20 uM preincubated for 1 hr followed by GlcN treatment for 18 hrs and subsequent insulin stimulation for 20 mins; format: functional, cell-based; details: time 19.33 hrs
HepG2 [3] = assay: Lipid lowering activity in human HepG2 cells assessed as inhibition of FFA-induced triglyceride content at 20 uM preincubated for 1 hr followed by FFA treatment for 24 hrs relative to control; format: functional
HepG2 [4] = assay: Cytotoxicity against human HepG2 cells assessed as cell survival at 10 to 40 uM by MTT assay; format: toxicity, cell-based; details: hepg2, 40 µM, dose 10-40 µM
Mus musculus = assay: Hypoglycemic activity in HFD-fed STZ-induced diabetic C57BL/6J mouse model assessed as improvement in weight loss at 200 mg/kg, po administered everyday for 3 weeks; format: functional, organism-based
HepG2 [5] = assay: as §1; format: toxicity, cell-based; details: hepg2, 24 h, 80 µM

| SMILES | viability at 24 h, 80 µM [1] [%] | inhibition (HepG2 [2]) | other results |
| --- | --- | --- | --- |
| CC(=O)O[C@@H]1C[C@]2(C)[C@H]3CC=C4[C@@H]5[C@@H](C)[C@H](C)CC[C@]5(C(=O)NCCCNC(=O)OCC5c6ccccc6-c6ccccc65)CC[C@@]4(C)[C@]3(C)CC[C@H]2C(C)(C)[C@H]1OC(C)=O | > 80 | – | – |
| C[C@H]1[C@H](C)CC[C@]2(C(=O)OCc3ccccc3)CC[C@]3(C)C(=CC[C@@H]4[C@@]5(C)CC[C@H](O)C(C)(C)[C@@H]5CC[C@]43C)[C@H]12 | > 80 | Active | – |
| C[C@H]1[C@H](C)CC[C@]2(C(=O)OCc3ccccc3)CC[C@]3(C)C(=CC[C@@H]4[C@@]5(C)CCC(=O)C(C)(C)[C@@H]5CC[C@]43C)[C@H]12 | > 80 | – | – |
| CC(=O)OC[C@H]1O[C@H](OC(=O)[C@]23CC[C@@H](C)[C@H](C)[C@H]2C2=CC[C@@H]4[C@@]5(C)C[C@@H](O)[C@H](O)C(C)(C)[C@@H]5CC[C@@]4(C)[C@]2(C)CC3)C(OC(C)=O)[C@H](OC(C)=O)C1OC(C)=O (single isomer, unassigned) | > 80 | Active | – |
| C[C@H]1[C@H](C)CC[C@]2(C(=O)O)CC[C@]3(C)C(=CC[C@@H]4[C@@]5(C)CC[C@H](O)C(C)(C)[C@@H]5CC[C@]43C)[C@H]12 [URSOLIC ACID] | 7.85 | – | – |
| COC(=O)C(Cc1ccc(OC)cc1)NC(=O)[C@]12CC[C@@H](C)[C@H](C)[C@H]1C1=CC[C@@H]3[C@@]4(C)C[C@@H](O)[C@H](O)C(C)(C)[C@@H]4CC[C@@]3(C)[C@]1(C)CC2 (stereo partly specified) | > 80 | Active | – |
| CC(=O)O[C@H]1CC[C@]2(C)[C@H]3CC=C4[C@@H]5[C@@H](C)[C@H](C)CC[C@]5(C(=O)OCc5ccccc5)CC[C@@]4(C)[C@]3(C)CC[C@H]2C1(C)C | > 80 | – | inhibition at 20 µM (HepG2 [3]): 58.5% |
| C[C@H]1[C@H](C)CC[C@]2(C(=O)NCCCNC(=O)CCCC[C@H]3SC[C@H]4NC(=O)N[C@H]43)CC[C@]3(C)C(=CC[C@@H]4[C@@]5(C)C[C@@H](O)[C@H](O)C(C)(C)[C@@H]5CC[C@]43C)[C@H]12 | – | – | Activity (HepG2 [4]): Non-toxic |
| CN(C)C(=N)NC(=N)N | – | – | Activity (Mus musculus): Active |
| C[C@H]1[C@H](C)CC[C@]2(C(=O)NCCCNC(=O)c3ccccc3)CC[C@]3(C)C(=CC[C@@H]4[C@@]5(C)C[C@@H](O)[C@H](O)C(C)(C)[C@@H]5CC[C@]43C)[C@H]12 | > 80 | – | – |
| CCOC(=O)[C@H](CO)NC(=O)[C@]12CC[C@@H](C)[C@H](C)[C@H]1C1=CC[C@@H]3[C@@]4(C)C[C@@H](O)[C@H](O)C(C)(C)[C@@H]4CC[C@@]3(C)[C@]1(C)CC2 | > 80 | Active | – |
| C[C@H]1[C@H](C)CC[C@]2(C(=O)NCCCCCC(=O)O)CC[C@]3(C)C(=CC[C@@H]4[C@@]5(C)C[C@@H](O)[C@H](O)C(C)(C)[C@@H]5CC[C@]43C)[C@H]12 | – | – | Activity (HepG2 [5]): Non-toxic |
| COC(=O)CCCCNC(=O)[C@]12CC[C@@H](C)[C@H](C)[C@H]1C1=CC[C@@H]3[C@@]4(C)C[C@@H](O)[C@H](O)C(C)(C)[C@@H]4CC[C@@]3(C)[C@]1(C)CC2 | > 80 | Active | – |
| C[C@H]1[C@H](C)CC[C@]2(C(=O)O[C@H]3O[C@H](CO)C(O)[C@@H](O)[C@H]3O)CC[C@]3(C)C(=CC[C@@H]4[C@@]5(C)C[C@@H](O)[C@H](O)C(C)(C)[C@@H]5CC[C@]43C)[C@H]12 (single isomer, unassigned) | 64.5 | – | – |
| CCOC(=O)[C@H](C)NC(=O)[C@]12CC[C@@H](C)[C@H](C)[C@H]1C1=CC[C@@H]3[C@@]4(C)C[C@@H](O)[C@H](O)C(C)(C)[C@@H]4CC[C@@]3(C)[C@]1(C)CC2 | > 80 | – | – |
| C[C@H]1[C@H](C)CC[C@]2(C(=O)NC(=O)NC3CC3)CC[C@]3(C)C(=CC[C@@H]4[C@@]5(C)C[C@@H](O)[C@H](O)C(C)(C)[C@@H]5CC[C@]43C)[C@H]12 | > 80 | Active | – |
| CCOC(=O)CNC(=O)[C@]12CC[C@@H](C)[C@H](C)[C@H]1C1=CC[C@@H]3[C@@]4(C)C[C@@H](O)[C@H](O)C(C)(C)[C@@H]4CC[C@@]3(C)[C@]1(C)CC2 | > 80 | – | – |
| C[C@H]1[C@H](C)CC[C@]2(C(=O)On3nnc4ccccc43)CC[C@]3(C)C(=CC[C@@H]4[C@@]5(C)C[C@@H](O)[C@H](O)C(C)(C)[C@@H]5CC[C@]43C)[C@H]12 | > 80 | – | – |
| CCOC(=O)[C@H](C)NC(=O)[C@]12CC[C@@H](C)[C@H](C)[C@H]1C1=CC[C@@H]3[C@@]4(C)C[C@@H](OC(C)=O)[C@H](OC(C)=O)C(C)(C)[C@@H]4CC[C@@]3(C)[C@]1(C)CC2 | > 80 | Active | inhibition at 20 µM (HepG2 [3]): 63.1% |
| CC(=O)O[C@@H]1C[C@]2(C)[C@H]3CC=C4[C@@H]5[C@@H](C)[C@H](C)CC[C@]5(C(=O)O)CC[C@@]4(C)[C@]3(C)CC[C@H]2C(C)(C)[C@H]1OC(C)=O | 58.7 | – | – |
| CCCCC(=O)NCCCNC(=O)[C@]12CC[C@@H](C)[C@H](C)[C@H]1C1=CC[C@@H]3[C@@]4(C)C[C@@H](O)[C@H](O)C(C)(C)[C@@H]4CC[C@@]3(C)[C@]1(C)CC2 | > 80 | Active | – |
| COC(=O)[C@H](Cc1ccccc1)NC(=O)[C@]12CC[C@@H](C)[C@H](C)[C@H]1C1=CC[C@@H]3[C@@]4(C)C[C@@H](O)[C@H](O)C(C)(C)[C@@H]4CC[C@@]3(C)[C@]1(C)CC2 | > 80 | Active | – |
| CCOC(=O)[C@H](CS)NC(=O)[C@]12CC[C@@H](C)[C@H](C)[C@H]1C1=CC[C@@H]3[C@@]4(C)C[C@@H](O)[C@H](O)C(C)(C)[C@@H]4CC[C@@]3(C)[C@]1(C)CC2 | > 80 | Active | – |
| C[C@H]1[C@H](C)CC[C@]2(C(=O)OCc3ccccc3)CC[C@]3(C)C(=CC[C@@H]4[C@@]5(C)C[C@@H](O)[C@H](O)C(C)(C)[C@@H]5CC[C@]43C)[C@H]12 | 12.3 | – | – |
| CC(=O)O[C@@H]1C[C@]2(C)[C@H]3CC=C4[C@@H]5[C@@H](C)[C@H](C)CC[C@]5(C(=O)NCCCN)CC[C@@]4(C)[C@]3(C)CC[C@H]2C(C)(C)[C@H]1OC(C)=O | 8.9 | Active | – |
| CCOC(=O)[C@H](CC(C)C)NC(=O)[C@]12CC[C@@H](C)[C@H](C)[C@H]1C1=CC[C@@H]3[C@@]4(C)C[C@@H](O)[C@H](O)C(C)(C)[C@@H]4CC[C@@]3(C)[C@]1(C)CC2 | > 80 | Active | – |
| C[C@H]1[C@H](C)CC[C@]2(C(=O)NCCCN)CC[C@]3(C)C(=CC[C@@H]4[C@@]5(C)C[C@@H](O)[C@H](O)C(C)(C)[C@@H]5CC[C@]43C)[C@H]12 | > 80 | – | – |
